“Also recorded” adds a separate entry of the source.
Assays:
[1] = test system: IL-10, TNF-α, IL12p70, IL-6 in serum; experiment: Serum cytokine secretion in OCI-LY3 tumor bearing mice, Mesoscale assay; type: in vivo, NOD/SCID mice
Method: Tumor and Serum Samples Collection on Study Termination. Whole blood samples were collected from all groups at 6 hours post the final dose. Serum samples were isolated from all groups were collected and stored at −80° C. Tumor tissues were collected from all of groups when study was terminated, and split into 2 pieces, take weights, processed to snap frozen and stored in 2 separated tubes.
Tumor and Serum Samples Collection on Study Termination. NF-κB signaling regulates the secretion of multiple cytokines, including interleukin (IL)-6 and IL-10. Secretion of the cytokines (IL-10, TNF-α, IL12p70, and IL-6) in serum samples of OCI-LY3 animals was measured by using a Mesoscale assay (MSD). For in vivo efficacy study, serum samples were isolated from all tumor bearing mice at 6 hours post the final dose of the MALT1 inhibitor of Formula I. For in vivo Pharmacodynamic (PD) experiment, serum samples were isolated from all tumor bearing mice (tumor volume around 700 mm3) at 8 hours post treatment with the MALT1 inhibitor of Formula I (BID dosing). Serum samples were transferred to an MSD plate (V-Plex Proinflammation Panel 1 [human] kit) and incubated for 2 hours at RT followed by a 2-hour incubation with cytokine antibody solution. Plates were read on a SECTOR imager.

OCI-LY3 DLBCL CDX model = experiment: In vivo efficacy in OCI-LY3 model, tumor growth inhibition; parameters: species or system NOD/SCID mice; details: for tumor growth inhibition (TGI): oral, 12 days post treatment; for in vivo growth of OCI-LY3 DLBCL CDX model (efficacy in words): OCI-LY3 model (CARD11 mut)
CLL cells [2] = experiment: CLL cell viability, flow cytometry with DiOC6 and TO-PRO3; type: cell-based, human; details: 24 hours, DiOC6 and TO-PRO3 staining
Method: (§1) FIG. 1A is a bar graph showing the results of an experiment in which CLL cells were treated with the indicated drugs and concentrations and incubated for 24 hours. For the BCR stimulation, cells were supplemented with IL-4 and αIgM. […] Bars represent the mean±SEM. FIG. 1B is a bar graph showing the results of an experiment in which CLL cells were labeled with CellTrace Violet and cultured for 5 days on 3T40 supplemented with IL-21 or on 3T3 in combination with CpG, IL-2, IL-15, and IL-21 in combination with 10 μM MALTi. Proliferation was measured using flow cytometry based on CellTrace Violet signal (n=8). […] Afterwards, culture supernatant was collected and IL-6 (n=14) (FIG. 1C), IL-10 (n=13) (FIG. 1D), and TNFα (n=14) (FIG. 1E) levels were measured using commercial ELISA kits. […] Protein lysates were probed for p-IκBα, Bcl-XL, and actin as loading control.

[3] = test system: T cell subsets in CLL and healthy donor PBMCs; experiment: T cell differentiation and subset distribution, flow cytometry; type: cell-based, human
Method: (§2) Afterwards, T cell subsets were measured using flow cytometry as described. […] Afterwards, T cell subsets were measured using flow cytometry based on CD27 and CD45RA. Naïve T cells were gated as CD27^+/CD45RA^+, central memory T cells were gated as CD27^+/CD45RA^−, memory T cells were gated as CD27^−/CD45RA^−, and terminally differentiated effector memory cells re-expressing CD45RA T cells were gated as CD27^−/CD45RA^+. […] Afterwards, regulatory T cells were measured using flow cytometry and gated as CD4^+/CD25^+/FoxP3^+. Bars represent the mean±SEM, *p<0.05, ***p<0.001 (paired sample t-test).
(§3) CLL or healthy donor PBMCs were labeled with CFSE or CTV and stimulated with anti-CD3 (clone 1XE) and anti-CD28 (clone 15E8) antibodies for 4 days. Culture supernatant was collected and IFNγ (ThermoFisher) and TNFα (Diaclone) levels were measured by commercial ELISA kits. The activation/proliferation panel consisted of the following antibodies: CD3-μF700 (eBioscience), CD4-PE-Cy7, CD8-PerCpCy5.5, CD25-APC (BD Bioscience). The differentiation panel consisted of the following antibodies: CD27/CCR7-PerCP-eFluor710 or (eBioscience), CD4-PE-Cy7, CD8-BV786, CD25-PE, CD45RA-BV650, and FoxP3-APC (BD Biosciences). […] Samples were measured on a FACS Canto II cytometer (BD Biosciences, San Jose, CA, USA) and analyzed using FlowJo software.

[4] = test system: CD4+/CD25+/FoxP3+ regulatory T cells; experiment: Regulatory T cell population in unstimulated PBMCs, flow cytometry; type: cell-based, human; details: unstimulated CLL and healthy donor PBMCs, 4 days
Method: as §2, §3

CLL cells [5] = experiment: Proliferation of CLL cells, CellTrace Violet; type: cell-based, human; details: 10 μM MALTi, 5 days; CD40 stimulation + IL-21 or CpG + IL-2, IL-15, IL-21
Method: as §1
CLL PBMCs were labeled with CellTrace Violet and either co-cultured with 3T40 fibroblasts and supplemented with IL-21 (25 ng/mL) or stimulated with CpG ODN2006 (1 μg/mL) and supplemented with IL-2, IL-15, and IL-21 (25 ng/mL). CLL cells were cultured for 5 days. […] Samples were measured on a FACS Canto II cytometer (BD Biosciences, San Jose, CA, USA) and proliferation was analyzed using FlowJo software.

[6] = test system: NF-κB-mediated cytokine secretion in CLL cells; experiment: Cytokine secretion (IL-6, IL-10, TNFα) of stimulated CLL cells, ELISA; type: cell-based, human; details: CD40, BCR and TLR9 stimulation, 24 hours
Method: as §1
(§4) CLL PBMCs were either co-cultured with 3T40 fibroblasts, stimulated with soluble or immobilized anti-IgM (SouthernBiotech, Birmingham, AL, USA) or stimulated with CpG ODN2006 (1 μg/mL) and incubated for 24 hours. Culture supernatant was collected and IL-6, IL-10, and TNFα levels were measured by commercial ELISA kits (Diaclone, Besancon, France). […] Samples were measured on a FACS Canto II cytometer (BD Biosciences, San Jose, CA, USA) and analyzed using FlowJo software.

[7] = test system: RelB and Bcl10 cleavage in OCI-Ly3 cell line; experiment: Activity of MALT1 inhibitor in OCI-Ly3 cell line, inhibition of RelB and Bcl10 cleavage by Western blotting; type: cell-based; details: 24 hours, with proteasome inhibitor MG132, Western blot
Method: OCI-Ly3 cell lines were cultured for 24 hours in combination with proteasome inhibitor MG132 and indicated concentrations of MALTi. Protein lysates were probed for RelB, Bcl10 and actin or vinculin as loading controls.
Western blot analysis was performed using standard techniques. Membranes were probed with the following antibodies: anti-RelB, p-IκBα, Bcl-XL (Cell Signaling), Bcl10 (Abcam), and actin (Santa Cruz Biotechnology). Odyssey Imager (Li-Cor Biosciences) was used as a detection method according to the manufacturer's protocol.
To test MALT1 inhibition in the context of CLL, we investigated CLL functionality under divergent microenvironmental stimulations. […] Proliferation of CLL cells was induced either via CD40 stimulation in combination with IL-21, or by stimulation with CpG in combination with IL-2, IL-15 and IL-21 ([…]). […] Because of the central role of MALT1 in NF-κB signaling, we investigated known targets of NF-κB such as IL-6, IL-10 and TNFα. Both CD40, BCR and TLR9 stimulation induced cytokine secretion of IL-6, IL-10 and TNFα (FIG. 1C-E). […] The role of MALT1 in the BCR and TLR9 pathway has previously been described, but its role in the CD40 pathway is a new observation.

CLL cells [8] = details: CD40-, BCR- or TLR9-stimulated, 10 μM MALTi, BH3 mimetic for additional 24 hours
Method: FIGS. 2A-2C are bar graphs showing the results of experiments in which CLL cells were cultured for 24 hours on 3T40, stimulated with IL-4 and αIgM (soluble or immobilized to beads) or stimulated with CpG, and incubated for 24 hours in combination with 10 μM MALTi. […] FIGS. 2D-2I) are graphs showing the results of experiments in which, in parallel, CD40-stimulated (n=9) (FIGS. 2D-2E), BCR-stimulated (n=8) (FIGS. 2F-2G), and TLR9-stimulated (n=6) (FIGS. 2H-2I) cells were with venetoclax or S63 for an additional 24 hours. Viability was measured using flow cytometry using DiOC6 and TO-PRO3 viability staining. […]
Lymphocytes of CLL patients were co-cultured with NIH3T3 fibroblasts stably transfected with human CD40L (3T40) or negative control (3T3) as described before (Urashima et al., “CD40 Ligand Triggered Interleukin-6 Secretion in Multiple Myeloma,” Blood 85(7):1903-1912 (1995) and Schultze et al., “CD40-Activated Human B Cells: An Alternative Source of Highly Efficient Antigen Presenting Cells to Generate Autologous Antigen-Specific T Cells for Adoptive Immunotherapy,” J. Clin. Invest. 100(11):2757-2765 (1997). After 24 hours, cells were detached and incubated with or without drugs for an additional 24 hours. CLL cell viability was measured by flow cytometry using DioC6 and TO-PRO-3 viability dyes. […]

[9] = test system: Bcl-2 family members Bcl-XL, Mcl-1 and Bcl-2 in CLL cells; experiment: Expression of Bcl-XL, Mcl-1 and Bcl-2 in stimulated CLL cells, intracellular flow cytometry; type: cell-based, human; details: CD40, BCR or TLR9 stimulation, 10 μM MALTi, 24 hours
Method: Afterwards, expression of Bcl-XL (n=13) (FIG. 2A).
CLL PBMCs were either co-cultured with 3T40 fibroblasts, stimulated with soluble or immobilized anti-IgM (SouthernBiotech, Birmingham, AL, USA) or stimulated with CpG ODN2006 (1 μg/mL) and incubated for 24 hours. Culture supernatant was collected and IL-6, IL-10, and TNFα levels were measured by commercial ELISA kits (Diaclone, Besancon, France). Intracellular flow cytometry staining was performed using Cytofix/Cytoperm according to manufacturer's protocol (BD Biosciences). Cells were stained with the following antibodies: anti-Bcl-XL-FITC, Mcl-1-PE, and Bcl-2-BV421 (BD Biosciences). Samples were measured on a FACS Canto II cytometer (BD Biosciences, San Jose, CA, USA) and analyzed using FlowJo software.

[10] = test system: NF-κB signaling (p-IκBα, Bcl-XL) in CLL cells; experiment: Western blot of p-IκBα and Bcl-XL in stimulated CLL cells; type: cell-based, human; details: 10 μM MALTi, 24 hours
Method: as §1
Western blot analysis was performed using standard techniques. […]
as §4

[11] = test system: CLL-derived and healthy T cells; experiment: T cell stimulation with anti-CD3/CD28: activation, proliferation, degranulation, cytokine secretion; type: cell-based, human
Method: Afterwards, cells were measured using flow cytometry. FIG. 3A are bar graphs showing T cell activation measured based on CD25. […] FIG. 3C are bar graphs showing T cell proliferation measured based on CellTrace Violet signal. FIG. 3D are bar graphs showing T cell degranulation measured in CLL (n=13) and healthy (n=3) T cells based on CD107a. After incubation, culture supernatant was collected and IFNγ (n=12) and TNFα (n=9) levels were measured using commercial ELISA kits (FIG. 3E).
CLL or healthy donor PBMCs were labeled with CFSE or CTV and stimulated with anti-CD3 (clone 1XE) and anti-CD28 (clone 15E8) antibodies for 4 days. Culture supernatant was collected and IFNγ (ThermoFisher) and TNFα (Diaclone) levels were measured by commercial ELISA kits. The activation/proliferation panel consisted of the following antibodies: CD3-μF700 (eBioscience), CD4-PE-Cy7, CD8-PerCpCy5.5, CD25-APC (BD Bioscience). The differentiation panel consisted of the following antibodies: CD27/CCR7-PerCP-eFluor710 or (eBioscience), CD4-PE-Cy7, CD8-BV786, CD25-PE, CD45RA-BV650, and FoxP3-APC (BD Biosciences). The cytotoxicity panel consisted of the following antibodies: CD107a-FITC (eBioscience), CD4-PerCPeF710, CD8-BV786, CD25-PE, and PD1-PE-Cy7 (BD Biosciences). Samples were measured on a FACS Canto II cytometer (BD Biosciences, San Jose, CA, USA) and analyzed using FlowJo software.

CC1(C)CCC(CN2CCN(c3ccc(C(=O)NS(=O)(=O)c4ccc(NCC5CCOCC5)c([N+](=O)[O-])c4)c(Oc4cnc5[nH]ccc5c4)c3)CC2)=C(c2ccc(Cl)cc2)C1 [Venetoclax, 4-[4-[[2-(4-chlorophenyl)-4,4-dimethylcyclohexen-1-yl]methyl]piperazin-1-yl]-N-[3-nitro-4-(oxan-4-ylmethylamino)phenyl]sulfonyl-2-(1H-pyrrolo[2,3-b]pyridin-5-yloxy)benzamide, reference compound]
cytokine secretion levels in serum (IL-10, TNFα, IL12p70, IL6) ([1]; monotherapy): didn't show effect | tumor growth inhibition (TGI) (OCI-LY3 DLBCL CDX model; 40 mg/kg QD): 0.98% | TGI (OCI-LY3 DLBCL CDX model; 40 mg/kg, QD): 0.98% | in vivo growth of OCI-LY3 DLBCL CDX model (efficacy in words) (OCI-LY3 DLBCL CDX model): did not show any efficacy

O=C(Nc1ccnc(C(F)(F)F)c1)c1cnn(-c2cccc3c(=O)[nH]ccc23)c1C(F)(F)F [MALT1 inhibitor of Formula I, 1-(1-oxo-1,2-dihydroisoquinolin-5-yl)-5-(trifluoromethyl)-N-[2-(trifluoromethyl)pyridin-4-yl]-1H-pyrazole-4-carboxamide]
direct cell death in CLL cells (viability) (CLL cells [2]): did not induce direct cell death | T cell subset distribution (differentiation) ([3]; stimulated with anti-CD3/CD28, 4 days, increasing concentrations): reverted the T cell subset distribution back to the phenotype seen in unstimulated cells | T cell subset distribution ([3]; unstimulated cells, 4 days): did not affect T cell subset distribution | CD4+/CD25+/FoxP3+ T cells [4]: specific significant decrease | proliferation of CLL cells (CLL cells [5]): reduced both types of proliferation but did not fully block the proliferation | NF-κB-mediated cytokine secretion (IL-6, IL-10, TNFα) [6]: decreased NF-κB-mediated cytokine secretion in all conditions and was most effective in CD40-stimulated cells | inhibition of RelB and Bcl10 cleavage [7]: confirmed activity | sensitivity of stimulated CLL cells to venetoclax and S63 with concurrent MALT1 inhibition (CLL cells [8]): a shift towards venetoclax and S63 sensitivity in all these conditions | IL-10, TNF-α, and IL12p70 secretion levels in serum ([1]; 6 hours post final dose): decrease IL-10, TNF-α, and IL12p70 secretion levels; also recorded: downregulate IL-10, TNF-α and IL12p70 secretion | expression of Bcl-XL, flow cytometry [9]: inhibited | expression of Mcl-1 and Bcl-2, flow cytometry [9]: not significantly affected | Bcl-XL expression, Western blot ([10]; BCR stimulation with soluble or immobilized anti-IgM or TLR9 stimulation via CpG): inhibition of Bcl-XL expression was also observed | p-IκBα and Bcl-XL, Western blot ([10]; CD40-stimulated (3T40) CLL cells): a decrease in p-IκBα and the NF-κB target Bcl-XL | tumor growth inhibition (TGI) (OCI-LY3 DLBCL CDX model; 30 mg/kg BID): 41.31% | TGI (OCI-LY3 DLBCL CDX model; 30 mg/kg, BID as printed, (second line of Table 4)): 69.92% | TGI (OCI-LY3 DLBCL CDX model; 30 mg/kg, BID, (first line of Table 4)): 41.31% | tumor growth inhibition (TGI) (OCI-LY3 DLBCL CDX model; 100 mg/kg BID): 69.92% | in vivo growth of OCI-LY3 DLBCL CDX model (efficacy in words) (OCI-LY3 DLBCL CDX model): moderately inhibits in vivo growth | CD107a (LAMP-1) expression, T cell degranulation ([11]; anti-CD3/CD28, 4 days): reduced | IFNγ and TNFα cytokine secretion ([11]; anti-CD3/CD28, 4 days, ELISA): significantly inhibited | concentrations at which in vitro T cell activation is impaired ([11]; anti-CD3/CD28 stimulated T cells): > 1 µM | T cell activation and proliferation (CD25, PD-1, CellTrace Violet) ([11]; soluble anti-CD3/CD28, 4 days, CD4 and CD8 T cells, CLL and healthy donors): significantly reduced
